According to ChEMBL document CHEMBL6078680, “Improving the Stability and Anti-Infective Activity of Sea Turtle AMPs Using Multiple Structural Modification Strategies” (J Med Chem, 2024):
Calls of active or inactive are those of the source. The rule behind the calls is not given here.

Columns and labels:
Pseudomonas aeruginosa = test: Antimicrobial activity against Pseudomonas aeruginosa CMCC10104 assessed as reduction in microbial growth incubated for 18 hrs by broth microdilution method; format: functional
Enterococcus faecium = test: Antimicrobial activity against Enterococcus faecium 34 assessed as reduction in microbial growth incubated for 18 hrs by broth microdilution method; format: functional
Acinetobacter baumannii [1] = test: Antibiofilm activity against Acinetobacter baumannii ATCC 19606 assessed as inhibition of biofilm formation incubated for 48 hrs by crystal violet staining based analysis; format: functional, organism-based
[2] = Acute toxicity in BALB/c mouse assessed as mortality at 10 mg/kg, iv measured for 24 hrs; format: organism-based; settings: in vivo, read-out: Activity
Staphylococcus aureus [3] = test: Antimicrobial activity against Staphylococcus aureus CMCC 26003 at 5 times MIC measured at 180 mins; format: functional, organism-based
Salmonella enteritidis = test: Antimicrobial activity against Salmonella enterica subsp. enterica serovar Enteritidis ATCC 14028 assessed as reduction in microbial growth incubated for 18 hrs by broth microdilution method; format: functional
Peritoneal macrophage [4] = test: Antiinflammatory activity in mouse Peritoneal macrophage cells assessed as inhibition of LPS-induced TNF-alpha production at 20 microg/ml incubated for 6 hrs by ELISA analysis; format: functional, cell-based; settings: dose 20.0 µg/ml
Acinetobacter baumannii [5] = test: In vivo antibacterial activity against Acinetobacter baumannii ATCC19606 infected in BALB/c mouse assessed as survival at 15 mg/kg, ip administered for 12 hrs and measured after 3 hrs; format: functional; settings: time 15 hrs
Acinetobacter baumannii [6] = test: In vivo antibacterial activity against Acinetobacter baumannii ATCC19606 infected in BALB/c mouse assessed as reduction in bacterial load in kidney at 15 mg/kg, ip measured after 12 hrs; format: functional, organism-based
[7] = Hemolytic activity at human Erythrocyte assessed as hemolysis at 100 microg/ml; format: toxicity, cell-based; settings: erythrocytes, at 100 µg/mL, read-out: Activity
Acinetobacter baumannii [8] = test: In vivo antibacterial activity against Acinetobacter baumannii ATCC19606 infected in BALB/c mouse assessed as reduction in bacterial load in lung at 15 mg/kg, ip measured after 12 hrs; format: functional, organism-based
Acinetobacter baumannii [9] = test: Antibiofilm activity against Acinetobacter baumannii ATCC 19606 assessed as biofilm eradication incubated for 24 hrs by crystal violet staining based analysis; format: functional, organism-based
Acinetobacter baumannii [10] = test: Antimicrobial activity against Acinetobacter baumannii ATCC19606 assessed as reduction in microbial growth incubated for 18 hrs by broth microdilution method; format: functional
Cell membrane [11] = test: Disruption of cell membrane integrity in Staphylococcus aureus CMCC 26003 assessed as cell membrane damage at 5 times MIC measured after 30 mins by scanning electron microscopic analysis; format: subcellular
Escherichia coli [12] = test: Antibacterial activity against Escherichia coli ATCC 25922 at 1 times MIC in presence of exogenous DNA; format: functional, organism-based
[13] = Acute toxicity in BALB/c mouse assessed as effect on ALT level at 10 mg/kg, iv measured for 24 hrs; format: organism-based; settings: in vivo
Staphylococcus aureus [14] = test: Antimicrobial activity against Staphylococcus aureus 08032706 assessed as reduction in microbial growth incubated for 18 hrs by broth microdilution method; format: functional
Staphylococcus aureus [15] = test: Antimicrobial activity against Staphylococcus aureus CMCC 26003 assessed as reduction in microbial growth incubated for 18 hrs by broth microdilution method; format: functional
Acinetobacter baumannii [16] = test: In vivo antibacterial activity against Acinetobacter baumannii ATCC19606 infected in BALB/c mouse assessed as reduction in bacterial load in liver at 15 mg/kg, ip measured after 3 hrs; format: functional, organism-based
Clostridium perfringens = test: Antimicrobial activity against Clostridium perfringens ATCC 13124 assessed as reduction in microbial growth incubated for 18 hrs by broth microdilution method; format: functional
Cell membrane [17] = test: Disruption of cell membrane integrity in Escherichia coli ATCC 25922 assessed as cell membrane damage at 5 times MIC measured after 30 mins by scanning electron microscopic analysis; format: subcellular
Staphylococcus aureus [18] = test: Antimicrobial activity against Staphylococcus aureus ATCC 43300 assessed as reduction in microbial growth incubated for 18 hrs by broth microdilution method; format: functional
Staphylococcus aureus [19] = test: Antibiofilm activity against Staphylococcus aureus CMCC 26003 assessed as inhibition of biofilm formation incubated for 48 hrs by crystal violet staining based analysis; format: functional, organism-based
Escherichia coli [20] = test: Antimicrobial activity against Escherichia coli CMCC44102 assessed as reduction in microbial growth incubated for 18 hrs by broth microdilution method; format: functional
Acinetobacter baumannii [21] = test: In vivo antibacterial activity against Acinetobacter baumannii ATCC19606 infected in BALB/c mouse assessed as survival at 15 mg/kg, ip administered for 12 hrs and measured on day 7; format: functional; settings: time 7.0 day
Escherichia coli [22] = test: Drug resistance, ratio of MIC for Escherichia coli ATCC 25922 after 40 passages to MIC for Escherichia coli ATCC 25922 during first exposure; format: functional
Acinetobacter baumannii [23] = test: Drug resistance, ratio of MIC for Acinetobacter baumannii ATCC1960 after 40 passages to MIC for Acinetobacter baumannii ATCC1960 during first exposure; format: functional
Acinetobacter baumannii [24] = test: In vivo antibacterial activity against Acinetobacter baumannii ATCC19606 infected in BALB/c mouse assessed as reduction in bacterial load in kidney at 15 mg/kg, ip measured after 3 hrs; format: functional, organism-based
Acinetobacter baumannii [25] = test: In vivo antibacterial activity against Acinetobacter baumannii ATCC19606 infected in BALB/c mouse assessed as reduction in bacterial load in liver at 15 mg/kg, ip measured after 12 hrs; format: functional, organism-based
Acinetobacter baumannii [26] = test: Antipersister-activity against Acinetobacter baumannii ATCC 19606 assessed as elimination of persister cells at 50 times MIC preincubated adherent persistent cells with colistin incubation for 24 hrs; format: functional
Escherichia coli [27] = test: Antimicrobial activity against Escherichia coli ATCC 25922 assessed as reduction in microbial growth incubated for 18 hrs by broth microdilution method; format: functional
Peritoneal macrophage [28] = test: Antiinflammatory activity in mouse Peritoneal macrophage cells assessed as inhibition of LPS-induced IL-6 production at 20 microg/ml incubated for 6 hrs by ELISA analysis; format: functional, cell-based; settings: dose 20.0 µg/ml
Acinetobacter baumannii [29] = test: In vivo antibacterial activity against Acinetobacter baumannii ATCC19606 infected in BALB/c mouse assessed as reduction in bacterial load in lung at 15 mg/kg, ip measured after 3 hrs; format: functional, organism-based
Acinetobacter baumannii [30] = test: In vivo antibacterial activity against Acinetobacter baumannii ATCC19606 infected in BALB/c mouse assessed as reduction in bacterial load at 15 mg/kg, ip; format: functional, organism-based; settings: time 3.0 hrs

CC[C@H](C)[C@H](NC(=O)[C@@H](CCCNC(=N)N)NC(=O)[C@H](CO)NC(=O)[C@H](Cc1c[nH]cn1)NC(=O)[C@@H](CCCNC(=N)N)NC(=O)[C@H](CC(C)C)NC(=O)[C@@H](NC(=O)[C@@H](CCCNC(=N)N)NC(=O)CNC(=O)[C@H](CC(C)C)NC(=O)[C@H](CCC(N)=O)NC(=O)[C@@H](CCCCN)NC(=O)[C@@H](CCCNC(=N)N)NC(=O)[C@@H](NC(=O)[C@@H](CCCCN)NC(=O)[C@@H](CCCCN)NC(=O)[C@@H](N)Cc1ccccc1)C(C)C)C(C)C)C(=O)N[C@H](C(=O)N[C@H](C(=O)NCC(=O)NCC(=O)N[C@H](CCCNC(=N)N)C(=O)N[C@@H](CCSC)C(=O)N[C@H](CCCNC(=N)N)C(=O)N[C@@H](Cc1ccccc1)C(=O)O)C(C)C)[C@@H](C)O
MIC (Pseudomonas aeruginosa): > 100 µg/mL | MIC (Enterococcus faecium): 75 µg/mL | Activity (Acinetobacter baumannii [1]): Active | mortality at 24 h [2]: 0% | Activity (Staphylococcus aureus [3]): inactive | MIC (Salmonella enteritidis): 37.5 µg/mL | Activity (Peritoneal macrophage [4]): Active | Activity (Acinetobacter baumannii [5]): >60% | Activity (Acinetobacter baumannii [6]): Active | hemolysis at 100 microg/ml [7]: < 5% | Activity (Acinetobacter baumannii [8]): Active | Activity (Acinetobacter baumannii [9]): Active | MIC (Acinetobacter baumannii [10]): 18.8 µg/mL | Activity (Cell membrane [11]): Active | Activity (Escherichia coli [12]): Active | Activity [13]: Non-toxic | MIC (Staphylococcus aureus [14]): 75 µg/mL | MIC (Staphylococcus aureus [15]): 75 µg/mL | Activity (Acinetobacter baumannii [16]): Active | MIC (Clostridium perfringens): 18.8 µg/mL | Activity (Cell membrane [17]): Active | MIC (Staphylococcus aureus [18]): > 100 µg/mL | Activity (Staphylococcus aureus [19]): Active | MIC (Escherichia coli [20]): 18.8 µg/mL | Activity (Acinetobacter baumannii [21]): Active | Ratio (Escherichia coli [22]): 1 | Ratio (Acinetobacter baumannii [23]): 1 | Activity (Acinetobacter baumannii [24]): Active | Activity (Acinetobacter baumannii [25]): Active | Activity (Acinetobacter baumannii [26]): 60% | MIC (Escherichia coli [27]): 18.8 µg/mL | Activity (Peritoneal macrophage [28]): Active | Activity (Acinetobacter baumannii [29]): Active | Activity (Acinetobacter baumannii [30]): Time-dependent-effect
